Reference: US10100010B1, “4-methoxy pyrrole derivatives or salts thereof and pharmaceutical composition comprising the same” (Daewoong Pharmaceutical Co., Ltd., priority 2015, dated 2018)
Where a name gives a salt, the structure may show the parent alone.

Legend:
Assay type in all cases: cell-based
5-HT2A = 5-HT2A (Homo sapiens, UniProt P28223); assay: GPCR Calcium Flux assay (FLIPR tetra, Eurofins), 5-HT2A; conditions: for IC50: 8 concentrations 10 to 0.0006 uM, read-out: 50% inhibitory concentration (IC50) 5-HT2A; for inhibition at 10 µM: single concentration of 10 uM, read-out: inhibition rate (%) 5-HT2A
Sequence of 5-HT2A (P28223 whole entry): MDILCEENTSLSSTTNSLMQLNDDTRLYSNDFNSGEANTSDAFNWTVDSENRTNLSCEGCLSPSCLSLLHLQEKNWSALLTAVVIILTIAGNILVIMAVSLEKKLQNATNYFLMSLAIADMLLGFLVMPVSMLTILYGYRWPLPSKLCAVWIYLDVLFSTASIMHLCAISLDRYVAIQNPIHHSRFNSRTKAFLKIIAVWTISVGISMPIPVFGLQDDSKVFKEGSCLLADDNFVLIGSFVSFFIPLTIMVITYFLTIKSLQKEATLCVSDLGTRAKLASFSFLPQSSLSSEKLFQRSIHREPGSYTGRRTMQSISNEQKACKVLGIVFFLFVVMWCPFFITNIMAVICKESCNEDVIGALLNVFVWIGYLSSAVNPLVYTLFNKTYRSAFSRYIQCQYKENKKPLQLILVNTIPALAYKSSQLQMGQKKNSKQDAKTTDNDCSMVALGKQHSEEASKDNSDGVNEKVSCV
Protocol: (§1) In order to confirm whether the compounds prepared in the above Examples act as an agonist or antagonist against GPCR Target, Calcium Flux assay was performed in an assay plate in which the compounds prepared in the Examples, vehicle controls, and reference compounds were added, using a Fluorometric imaging plate reader (FLIPR tetra) equipment.
(§2) Calcium Flux assay was evaluated by entrusting the GPCR profiler assay in Safety panel assays with Eurofins. By using the Fluo-8AM calcium dye, excitation was measured at a wavelength in the range of 470 to 495 nm and Emission was measured at a wavelength in the range of 515-575 nm. GPCR Assay Buffer for Calcium Flux assay was prepared by adding 20 mM of HEPES and 2.5 mM of Probenecid to Hanks Balanced Salt Solution (HBSS) to have pH 7.4. The Compounds of Examples for evaluation of the GPCR were diluted with DMSO at a concentration of 10 mM to make a stock and then prepared by diluting in the GPCR Assay Buffer at the concentration equivalent to three times the final concentration. First, for the evaluation of GPCRs, the inhibitory activity of the compounds of the Examples was evaluated at a single concentration of 10 uM, and then the respective selected targets were four fold-diluted from 10 uM to the low side to calculate 50% inhibitory concentration (IC50), prepared at the total 8 concentrations of 10, 2.5, 0.62, 0.15, 0.04, 0.01, 0.0024, 0.0006 uM, and Calcium Flux assay for GPCR was conducted. In order to evaluate the agonist and antagonist, % inhibition rate against GPCR activity before and after treatment of the compounds and the inhibitory activity of the compounds of the Examples were determined.
(§3) As a result, when the efficacy of […] and acetylcholine of the compounds prepared in the Examples was 100%, the inhibition rate (%) at a single concentration of 10 uM was evaluated and shown in Table 8.

M1 = target: T1, M1 (Homo sapiens, UniProt P11229); assay: GPCR Calcium Flux assay (FLIPR tetra, Eurofins), M1; conditions: for inhibition at 10 µM: single concentration of 10 uM, read-out: inhibition rate (%) M1; for IC50: 8 concentrations 10 to 0.0006 uM, read-out: 50% inhibitory concentration (IC50) M1
T1 sequence (P11229 1-460): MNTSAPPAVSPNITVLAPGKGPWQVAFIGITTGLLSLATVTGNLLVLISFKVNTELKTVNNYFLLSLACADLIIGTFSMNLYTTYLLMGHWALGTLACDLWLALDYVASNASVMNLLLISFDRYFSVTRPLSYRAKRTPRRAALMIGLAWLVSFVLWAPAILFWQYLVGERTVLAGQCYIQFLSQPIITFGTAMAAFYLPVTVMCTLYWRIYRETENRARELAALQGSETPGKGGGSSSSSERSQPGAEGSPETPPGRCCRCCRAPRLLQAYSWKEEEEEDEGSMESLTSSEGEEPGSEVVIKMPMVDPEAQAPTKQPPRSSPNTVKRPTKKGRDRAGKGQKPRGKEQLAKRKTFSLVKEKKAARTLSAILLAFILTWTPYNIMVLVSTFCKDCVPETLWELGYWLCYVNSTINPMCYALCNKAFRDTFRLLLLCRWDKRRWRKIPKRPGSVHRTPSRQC
Protocol: as §1, §2, §3

M2 = target: T2, M2 (Homo sapiens, UniProt P08172); assay: GPCR Calcium Flux assay (FLIPR tetra, Eurofins), M2; conditions: for inhibition at 10 µM: single concentration of 10 uM, read-out: inhibition rate (%) M2; for IC50: 8 concentrations 10 to 0.0006 uM, read-out: 50% inhibitory concentration (IC50) M2
T2 sequence (P08172 1-466): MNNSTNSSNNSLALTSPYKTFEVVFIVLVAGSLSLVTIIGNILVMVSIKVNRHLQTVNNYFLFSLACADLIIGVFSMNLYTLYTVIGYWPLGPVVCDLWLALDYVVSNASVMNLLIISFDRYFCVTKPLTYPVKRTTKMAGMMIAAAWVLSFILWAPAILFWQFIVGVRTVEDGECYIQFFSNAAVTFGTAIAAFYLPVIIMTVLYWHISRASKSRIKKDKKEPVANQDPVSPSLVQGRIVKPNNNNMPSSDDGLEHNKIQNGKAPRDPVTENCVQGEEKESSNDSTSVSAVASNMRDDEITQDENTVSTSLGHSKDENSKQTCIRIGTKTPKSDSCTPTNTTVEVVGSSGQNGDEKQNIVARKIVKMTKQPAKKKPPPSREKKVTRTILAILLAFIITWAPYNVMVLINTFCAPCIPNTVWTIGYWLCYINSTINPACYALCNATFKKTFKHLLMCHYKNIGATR
Protocol: as §1, §2, §3

Row | Compound | IC50 (5-HT2A) [nM] | inhibition at 10 µM (5-HT2A) [%] | inhibition at 10 µM (M1) [%] | inhibition at 10 µM (M2) [%] | IC50 (M1) [nM] | IC50 (M2) [nM]
1 | CNCc1cn(S(=O)(=O)c2cccc(OC)c2)c(-c2ccccc2F)c1OC [Example 3, 1-(5-(2-fluorophenyl)-4-methoxy-1-((3-methoxyphenyl)sulfonyl)-1H-pyrrol-3-yl)-N-methylmethanamine hydrochloride] | 180 | 94 | 87 | 76.9 |  | 
2 | CNCc1cn(S(=O)(=O)c2cccc(C(F)(F)F)c2)c(-c2cc(F)ccc2F)c1OC [Example 32, 1-(5-(2,5-difluorophenyl)-1-((3-trifluoromethylphenyl)sulfonyl)-4-methoxy-1H-pyrrol-3-yl)-N-methylmethanamine hydrochloride] |  | 10.6 | 52.6 | 10.8 |  | 
3 | CNCc1cn(S(=O)(=O)c2cccc(C(F)(F)F)c2)c(-c2ccc(Cl)cc2F)c1OC [Example 7, 1-(5-(2-fluoro-4-chlorophenyl)-4-methoxy-1-((3-(trifluoromethyl)phenyl)sulfonyl)-1H-pyrrol-3-yl)-N-methylmethanamine hydrochloride] |  | 42.3 | 65.6 | 0.8 |  | 
4 | CNCc1cn(S(=O)(=O)c2cccc(OC)c2)c(-c2ccc(F)cc2F)c1OC [Example 11, 1-(5-(2,4-difluorophenyl)-1-((3-methoxyphenyl)sulfonyl)-4-methoxy-1H-pyrrol-3-yl)-N-methylmethanamine hydrochloride] | 200 | 102 | 97.2 | 79.4 | 1800 | 
5 | CNCc1cn(S(=O)(=O)c2cccc(C(F)(F)F)c2)c(-c2ccc(F)cc2F)c1OC [Example 9, 1-(5-(2,4-difluorophenyl)-1-((3-(trifluoromethyl)phenyl)sulfonyl)-4-methoxy-1H-pyrrol-3-yl)-N-methylmethanamine hydrochloride] |  | 61.1 | 74.7 | 18.3 |  | 
6 | CNCc1cn(S(=O)(=O)c2ccc(F)c(F)c2)c(-c2c(F)cc(F)cc2F)c1OC [Example 26, 1-(1-((3,4-difluorophenyl)sulfonyl)-4-methoxy-5-(2,4,6-trifluorophenyl)-1H-pyrrol-3-yl)-N-methylmethanamine hydrochloride] |  | 99 | 101 | 89.2 |  | 
7 | CNCc1cn(S(=O)(=O)c2cccc(Cl)c2)c(-c2ccc(Cl)cc2F)c1OC [Example 6, 1-(5-(2-fluoro-4-chlorophenyl)-4-methoxy-1-((3-chlorophenyl)sulfonyl)-1H-pyrrol-3-yl)-N-methylmethanamine hydrochloride] | 160 | 102 | 93.1 | 15.1 | ~3000 | 
8 | CNCc1cn(S(=O)(=O)c2cccc(OC)c2)c(-c2c(F)ccc(F)c2F)c1OC [Example 30, 1-(1-((3-methoxyphenyl)sulfonyl)-4-methoxy-5-(2,3,6-trifluorophenyl)-1H-pyrrol-3-yl)-N-methylmethanamine hydrochloride] |  | 100 | 94.3 | 43 | 1400 | 
9 | CNCc1cn(S(=O)(=O)c2cccc(Cl)c2)c(-c2c(F)ccc(F)c2F)c1OC [Example 28, 1-(1-((3-chlorophenyl)sulfonyl)-4-methoxy-5-(2,3,6-trifluorophenyl)-1H-pyrrol-3-yl)-N-methylmethanamine hydrochloride] | 67 | 97.6 | 99.4 | 61.9 | 550 | 
10 | CNCc1cn(S(=O)(=O)c2cccc(F)c2)c(-c2c(F)cccc2F)c1OC [Example 13, 1-(5-(2,6-difluorophenyl)-1-((3-fluorophenyl)sulfonyl)-4-methoxy-1H-pyrrol-3-yl)-N-methylmethanamine hydrochloride] | 76 | 102 | 100 | 99.4 | 110 | 510
11 | CNCc1cn(S(=O)(=O)c2cccc(OC(F)F)c2)c(-c2ccccc2F)c1OC [Example 4, 1-(5-(2-fluorophenyl)-4-methoxy-1-((3-difluoromethoxyphenyl)sulfonyl)-1H-pyrrol-3-yl)-N-methylmethanamine hydrochloride] | 850 | 96 | 55.8 | 22 |  | 
12 | CNCc1cn(S(=O)(=O)c2ccc(F)c(Cl)c2)c(-c2c(F)cccc2F)c1OC [Example 18, 1-(5-(2,6-difluorophenyl)-1-((3-chloro-4-fluorophenyl)sulfonyl)-4-methoxy-1H-pyrrol-3-yl)-N-methylmethanamine hydrochloride] | 210 | 98.1 | 91.2 | 42.1 | ~2100 | 
13 | CNCc1cn(S(=O)(=O)c2cccc(OC(F)F)c2)c(-c2ccc(F)cc2F)c1OC [Example 12, 1-(5-(2,4-difluorophenyl)-1-((3-difluoromethoxyphenyl)sulfonyl)-4-methoxy-1H-pyrrol-3-yl)-N-methylmethanamine hydrochloride] |  | 101 | 93.1 | 28.7 |  | 
14 | CNCc1cn(S(=O)(=O)c2cccc(F)c2)c(-c2c(F)cccc2Cl)c1OC [Example 20, 1-(5-(2-fluoro-6-chlorophenyl)-1-((3-fluorophenyl)sulfonyl)-4-methoxy-1H-pyrrol-3-yl)-N-methylmethanamine hydrochloride] |  | 99.2 | 103 | 90.5 |  | 
15 | CNCc1cn(S(=O)(=O)c2cccc(F)c2)c(-c2cc(F)ccc2F)c1OC [Example 31, 1-(5-(2,5-difluorophenyl)-1-((3-fluorophenyl)sulfonyl)-4-methoxy-1H-pyrrol-3-yl)-N-methylmethanamine hydrochloride] | 42 | 101 | 100 | 98.6 | 73 | 
16 | CNCc1cn(S(=O)(=O)c2cccc(C(F)(F)F)c2)c(-c2c(F)cccc2F)c1OC [Example 15, 1-(5-(2,6-difluorophenyl)-1-((3-(trifluoromethyl)phenyl)sulfonyl)-4-methoxy-1H-pyrrol-3-yl)-N-methylmethanamine hydrochloride] |  | 30.1 | 87.1 | 62.1 |  | 
17 | CNCc1cn(S(=O)(=O)c2cccc(C(F)(F)F)c2)c(-c2c(F)cc(F)cc2F)c1OC [Example 24, 1-(1-((3-trifluoromethylphenyl)sulfonyl)-4-methoxy-5-(2,4,6-trifluorophenyl)-1H-pyrrol-3-yl)-N-methylmethanamine hydrochloride] | 62 | 62.2 | 93.4 | 22 | > 1000 | > 10000
